Measurements: US20230373985A1 (Origenis Gmbh, priority 2020, published 2023)

Legend:
[1] = target: T1, wt human TYK2, catalytic site (Homo sapiens, UniProt P29597); experiment: HTRF KinEASE assay, TYK2; assay type: biochemical; settings: 1 μM ATP; read-out: IC50, Activity Toward TYK2
T1 construct: wt human TYK2, catalytic site; purchased SignalChem
T1 sequence (P29597 897-1176 limits assumed): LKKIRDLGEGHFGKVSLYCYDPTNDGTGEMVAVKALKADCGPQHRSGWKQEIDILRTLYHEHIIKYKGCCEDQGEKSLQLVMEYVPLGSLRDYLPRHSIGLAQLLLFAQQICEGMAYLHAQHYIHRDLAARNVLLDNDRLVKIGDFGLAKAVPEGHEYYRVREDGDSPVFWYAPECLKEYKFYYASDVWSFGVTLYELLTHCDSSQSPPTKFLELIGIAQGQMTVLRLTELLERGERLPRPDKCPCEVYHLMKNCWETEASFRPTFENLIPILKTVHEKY
In short: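 HTRF KinEASE-TK readout with 1 μM biotinylated TK substrate in 1× kinase buffer, ≥30 min at room temperature, then antibody/streptavidin-XL665 detection for 60 min. TYK2 at 2 nM with 1 μM ATP; JAK2 at 1 nM with 100 μM ATP. Analysis uses emission ratios.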

[2] = target: T2, wt human JAK1, catalytic site (Homo sapiens, UniProt P23458); experiment: HTRF KinEASE assay, JAK1; assay type: biochemical; settings: 2.5 μM ATP; read-out: IC50, Activity Toward JAK1
T2 construct: wt human JAK1, catalytic site; purchased ThermoFisher
In short: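 Two-step HTRF KinEASE assay: compound, kinase/biotinylated TK substrate and ATP were incubated at least 30 min at room temperature. Antibody plus streptavidin-XL665 was then added and plates were read after 60 min. Inhibition was derived from emission ratios according to the kit protocol.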

[3] = target: T3, wt human JAK2, catalytic site (Homo sapiens, UniProt O60674); experiment: HTRF KinEASE assay, JAK2; assay type: biochemical; settings: assay format not given (Z'-LYTE or HTRF KinEASE); read-out: IC50, Activity Toward JAK2
T3 construct: wt human JAK2, catalytic site; purchased SignalChem
Procedure: Basic protocol for HTRF KinEASE assay (Cisbio/FRA) inhibitor studies involved two steps: • Enzymatic step: Addition of 4 μL of test compound in corresponding DMSO dilutions, 4 μL of kinase/substrate mixture, 2 μL of ATP into 384 well small volume plates. Incubation for at least 30 minutes at room temperature. • Detection step: Addition of 5 μL antibody and 5 μL streptavidin-XL665, read plate after 60 minutes. Data analysis of emission ratios according KinEASE assay protocol.
(§1) Kinase and assay components were adjusted to final concentrations according to kit protocol. For TYK2: 2 nM wt human TYK2, catalytic site (SignalChem/CAN), 1 μM HTRF KinEASE-TK Substrate-biotin, 1 μM ATP in 1× Kinase Buffer. For JAK1: 4 nM wt human JAK1, catalytic site (ThermoFisher/USA), 1 μM HTRF KinEASE-TK Substrate-biotin, 2.5 μM ATP in 1× Kinase Buffer. For JAK2: 1 nM wt human JAK2, catalytic site (SignalChem/CAN), 1 μM HTRF KinEASE-TK Substrate-biotin, 100 μM ATP in 1× Kinase Buffer.
as §1

[4] = target: T4, wt human LRRK2, catalytic site (Homo sapiens, UniProt Q5S007); experiment: TR-FRET LanthaScreen Eu Kinase Binding Assay, LRRK2 wt; settings: one range stated for wt and G2019, read-out: IC50, Activity Toward LRRK2(Wt)
T4 construct: 5 nM wt human LRRK2, catalytic site; purchased ThermoFisher
In short: (§2)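 Competitive tracer-displacement TR-FRET, 1 h at room temperature, read as emission ratio. LRRK2 (wt or G2019S catalytic domain) at 5 nM with 2 nM Eu-anti-GST and 10 nM Tracer 236; full-length NUAK1 at 8 nM with 2 nM Eu-anti-His and 5 nM Tracer 236, all final in Kinase Buffer A.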

[5] = target: T5, wt human NUAK1, full length (Homo sapiens, UniProt O60285); experiment: TR-FRET LanthaScreen Eu Kinase Binding Assay, NUAK1; settings: read-out: IC50, Activity Toward NUAK1
T5 construct: 8 nM wt human NUAK1, full length (ThermoFisher/USA); purchased ThermoFisher
T5 sequence (O60285 1-661): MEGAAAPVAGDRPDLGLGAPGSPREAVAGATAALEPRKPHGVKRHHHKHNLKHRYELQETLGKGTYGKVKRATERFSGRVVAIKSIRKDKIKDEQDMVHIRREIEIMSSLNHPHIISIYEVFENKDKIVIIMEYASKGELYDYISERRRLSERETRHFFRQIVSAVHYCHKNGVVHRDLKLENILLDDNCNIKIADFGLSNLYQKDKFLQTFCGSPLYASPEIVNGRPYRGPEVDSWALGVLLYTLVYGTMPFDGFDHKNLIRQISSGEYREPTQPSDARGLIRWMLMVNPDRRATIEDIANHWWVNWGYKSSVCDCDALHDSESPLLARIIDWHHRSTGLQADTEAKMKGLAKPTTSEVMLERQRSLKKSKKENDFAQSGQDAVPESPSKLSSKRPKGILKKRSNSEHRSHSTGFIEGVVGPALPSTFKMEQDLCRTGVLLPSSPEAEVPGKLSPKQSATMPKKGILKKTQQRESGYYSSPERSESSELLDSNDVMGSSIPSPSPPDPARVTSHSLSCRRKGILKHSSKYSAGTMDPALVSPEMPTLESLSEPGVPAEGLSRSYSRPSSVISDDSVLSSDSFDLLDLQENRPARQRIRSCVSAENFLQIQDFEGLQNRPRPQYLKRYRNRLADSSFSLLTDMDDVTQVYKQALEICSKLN
In short: as §2

[6] = target: T6, G2019S human LRRK2, catalytic site (Homo sapiens, UniProt Q5S007, G2019S); experiment: TR-FRET LanthaScreen Eu Kinase Binding Assay, LRRK2 G2019S; settings: LRRK2(G2019); one range stated for wt and G2019; read-out: IC50, Activity Toward LRRK2(G2019)
T6 construct: G2019S human LRRK2, catalytic site; purchased ThermoFisher
In short: as §2

T2 sequence (P23458 875-1153 limits assumed): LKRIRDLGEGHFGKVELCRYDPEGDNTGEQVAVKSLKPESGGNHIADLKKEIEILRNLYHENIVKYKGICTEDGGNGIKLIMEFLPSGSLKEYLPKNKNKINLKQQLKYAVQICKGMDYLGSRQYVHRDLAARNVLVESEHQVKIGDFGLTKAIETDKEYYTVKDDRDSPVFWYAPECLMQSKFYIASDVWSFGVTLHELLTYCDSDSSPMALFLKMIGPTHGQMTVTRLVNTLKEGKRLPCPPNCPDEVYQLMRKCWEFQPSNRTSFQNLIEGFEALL
T6 sequence (Q5S007 970-2527 G2019S limits assumed): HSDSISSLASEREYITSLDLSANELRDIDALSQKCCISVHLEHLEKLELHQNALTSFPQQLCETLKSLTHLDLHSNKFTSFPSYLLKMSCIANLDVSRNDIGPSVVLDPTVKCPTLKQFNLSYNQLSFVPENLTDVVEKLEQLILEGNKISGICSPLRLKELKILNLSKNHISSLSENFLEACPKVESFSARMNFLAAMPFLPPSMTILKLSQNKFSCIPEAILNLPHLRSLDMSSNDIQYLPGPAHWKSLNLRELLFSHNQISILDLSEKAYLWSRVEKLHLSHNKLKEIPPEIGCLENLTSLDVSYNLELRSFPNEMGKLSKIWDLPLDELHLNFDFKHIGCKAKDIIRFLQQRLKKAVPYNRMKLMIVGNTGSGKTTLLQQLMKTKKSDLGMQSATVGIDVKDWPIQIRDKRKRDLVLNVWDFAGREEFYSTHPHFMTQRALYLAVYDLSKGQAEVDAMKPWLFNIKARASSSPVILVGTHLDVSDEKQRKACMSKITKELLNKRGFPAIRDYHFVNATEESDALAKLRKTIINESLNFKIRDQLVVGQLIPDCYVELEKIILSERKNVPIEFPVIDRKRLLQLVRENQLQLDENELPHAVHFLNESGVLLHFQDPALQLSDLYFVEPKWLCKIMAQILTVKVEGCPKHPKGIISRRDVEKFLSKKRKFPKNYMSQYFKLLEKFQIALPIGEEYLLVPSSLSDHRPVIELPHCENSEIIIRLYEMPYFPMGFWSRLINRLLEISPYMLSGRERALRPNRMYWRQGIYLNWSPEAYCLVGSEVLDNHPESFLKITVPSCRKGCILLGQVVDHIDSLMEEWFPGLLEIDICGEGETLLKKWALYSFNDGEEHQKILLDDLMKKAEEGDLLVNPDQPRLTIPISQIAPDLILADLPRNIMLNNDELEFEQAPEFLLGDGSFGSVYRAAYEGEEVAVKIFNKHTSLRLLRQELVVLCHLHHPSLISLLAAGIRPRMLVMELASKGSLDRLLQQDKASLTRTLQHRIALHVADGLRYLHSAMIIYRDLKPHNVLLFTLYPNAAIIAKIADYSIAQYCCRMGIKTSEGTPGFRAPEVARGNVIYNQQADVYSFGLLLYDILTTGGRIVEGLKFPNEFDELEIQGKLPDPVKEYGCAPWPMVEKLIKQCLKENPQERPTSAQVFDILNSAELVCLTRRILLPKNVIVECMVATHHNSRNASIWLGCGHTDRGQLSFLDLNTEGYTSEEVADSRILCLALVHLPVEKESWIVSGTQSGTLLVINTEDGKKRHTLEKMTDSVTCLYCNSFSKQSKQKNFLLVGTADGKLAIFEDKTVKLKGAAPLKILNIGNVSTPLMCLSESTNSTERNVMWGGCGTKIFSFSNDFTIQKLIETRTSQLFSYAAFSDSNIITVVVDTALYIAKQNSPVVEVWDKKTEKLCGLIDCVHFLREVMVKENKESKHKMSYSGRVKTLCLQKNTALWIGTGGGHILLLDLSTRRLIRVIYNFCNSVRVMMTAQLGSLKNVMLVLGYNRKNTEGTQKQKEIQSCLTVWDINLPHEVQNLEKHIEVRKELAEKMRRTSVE
T4 sequence (Q5S007 970-2527 limits assumed): as the sequence (Q5S007 970-2527 G2019S limits assumed) above, with S1050G counted along it
T3 sequence (O60674 849-1124 limits assumed): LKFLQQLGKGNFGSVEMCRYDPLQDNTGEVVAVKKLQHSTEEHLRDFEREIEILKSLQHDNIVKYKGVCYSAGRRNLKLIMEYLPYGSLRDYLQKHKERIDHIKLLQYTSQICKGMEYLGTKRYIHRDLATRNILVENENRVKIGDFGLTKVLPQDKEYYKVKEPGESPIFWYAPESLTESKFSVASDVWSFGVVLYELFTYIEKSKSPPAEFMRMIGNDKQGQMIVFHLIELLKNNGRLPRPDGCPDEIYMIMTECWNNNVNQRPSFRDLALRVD

IC50 [1] [µM] | IC50 [2] [µM] | IC50 [3] [µM] | IC50 [4] [µM] | IC50 [5] [µM] | IC50 [6] [µM] | Compound
0.01 to 0.1 | 0.01 to 0.1 | 0.1 to 1 | – | – | – | NC(=O)c1nn(-c2c(Cl)cccc2Cl)nc1Nc1ccc(OC2CCNCC2)cc1 [Compound No. 120, 2-(2,6-dichlorophenyl)-5-((4-(piperidin-4-yloxy)phenyl)amino)-2H-1,2,3-triazole-4-carboxamide]
0.01 to 0.1 | 0.1 to 1 | 0.1 to 1 | – | – | – | CC(C)n1ncnc1-c1ccc(Nc2cn(-c3c(Cl)cccc3Cl)nc2C(N)=O)cc1 [compound 90, 1-(2,6-dichlorophenyl)-4-((4-(1-isopropyl-1H-1,2,4-triazol-5-yl)phenyl)amino)-1H-pyrazole-3-carboxamide]
0.01 to 0.1 | 0.01 to 0.1 | 0.1 to 1 | – | – | – | NC(=O)c1nn(-c2c(Cl)cccc2Cl)cc1Nc1ccc(C(=O)N2CCCC2)cc1 [compound 94, 1-(2,6-dichlorophenyl)-4-((4-(pyrrolidine-1-carbonyl)phenyl)amino)-1H-pyrazole-3-carboxamide]
0.01 to 0.1 | 0.01 to 0.1 | 0.1 to 1 | – | – | – | Cn1ncnc1-c1ccc(Nc2cn(-c3c(Cl)cccc3Cl)nc2C(N)=O)cc1 [compound 96, 1-(2,6-dichlorophenyl)-4-((4-(1-methyl-1H-1,2,4-triazol-5-yl)phenyl)amino)-1H-pyrazole-3-carboxamide]
< 0.01 | 0.1 to 1 | 0.1 to 1 | – | – | – | N#CC1CN(C(=O)c2ccc(Nc3nn(-c4c(Cl)cccc4Cl)nc3C(N)=O)cc2)C1 [compound 107, 5-[4-(3-Cyano-azetidine-1-carbonyl)-phenylamino]-2-(2,6-dichloro-phenyl)-2H-[1,2,3]triazole-4-carboxylic acid amide]
< 0.01 | 0.01 to 0.1 | 0.1 to 1 | – | – | – | NC(=O)c1nn(-c2c(Cl)cccc2Cl)nc1Nc1ccc(-c2nnc3n2CCCC3)cc1 [compound 109, 2-(2,6-Dichloro-phenyl)-5-[4-(5,6,7,8-tetrahydro-[1,2,4]triazolo[4,3-a]pyridin-3-yl)-phenylamino]-2H-[1,2,3]triazole-4-carboxylic acid amide]
< 0.01 | < 0.01 | 0.1 to 1 | – | – | – | CN1CCC(Oc2ccc(Nc3nn(-c4c(Cl)cccc4Cl)nc3C(N)=O)cc2)CC1 [compound 114, 2-(2,6-dichlorophenyl)-5-((4-((1-methylpiperidin-4-yl)oxy)phenyl)amino)-2H-1,2,3-triazole-4-carboxamide]
0.01 to 0.1 | 0.01 to 0.1 | 0.1 to 1 | – | – | – | Cn1cnnc1-c1ccc(Nc2nn(-c3c(Cl)cccc3Cl)nc2C(N)=O)cc1 [compound 117, 2-(2,6-dichlorophenyl)-5-((4-(4-methyl-4H-1,2,4-triazol-3-yl)phenyl)amino)-2H-1,2,3-triazole-4-carboxamide]
0.01 to 0.1 | 0.01 to 0.1 | 0.1 to 1 | – | – | – | COCCCNC(=O)c1ccc(Nc2nn(-c3c(Cl)cccc3Cl)nc2C(N)=O)cc1 [compound 119, 2-(2,6-dichlorophenyl)-5-((4-((3-methoxypropyl)carbamoyl)phenyl)amino)-2H-1,2,3-triazole-4-carboxamide]
< 0.01 | 0.01 to 0.1 | 0.1 to 1 | – | – | – | NC(=O)c1nn(-c2c(Cl)cccc2Cl)nc1Nc1ccc(C(=O)N2CC(O)C2)cc1 [compound 124, 2-(2,6-dichlorophenyl)-5-((4-(3-hydroxyazetidine-1-carbonyl)phenyl)amino)-2H-1,2,3-triazole-4-carboxamide]
0.01 to 0.1 | < 0.01 | 0.1 to 1 | – | – | – | NC(=O)c1nn(-c2c(Cl)ccc(F)c2Cl)nc1Nc1ccc(C(=O)N2CCOCC2)cc1 [compound 138, 2-(2,6-dichloro-3-fluorophenyl)-5-((4-(morpholine-4-carbonyl)phenyl)amino)-2H-1,2,3-triazole-4-carboxamide]
0.01 to 0.1 | 0.01 to 0.1 | – | 0.1 to 1 | 0.1 to 1 | 0.1 to 1 | Cn1cc(Nc2cn(-c3c(F)cccc3Cl)nc2C(N)=O)cn1 [compound 359, 1-(2-chloro-6-fluorophenyl)-4-((1-methyl-1H-pyrazol-4-yl)amino)-1H-pyrazole-3-carboxamide]
< 0.01 | 0.01 to 0.1 | – | 0.1 to 1 | 0.1 to 1 | 0.1 to 1 | N#Cc1cn(CCO)c(-c2ccc(Nc3cn(-c4c(Cl)cccc4Cl)nc3C(N)=O)cc2)n1 [compound 361, 4-((4-(4-cyano-1-(2-hydroxyethyl)-1H-imidazol-2-yl)phenyl)amino)-1-(2,6-dichlorophenyl)-1H-pyrazole-3-carboxamide]
0.01 to 0.1 | 0.01 to 0.1 | – | 0.1 to 1 | 0.1 to 1 | 0.1 to 1 | CN1CCC(N(C)C(=O)c2ccc(Nc3cn(-c4c(Cl)ccc(F)c4Cl)nc3C(N)=O)cc2)CC1 [compound 417, 1-(2,6-dichloro-3-fluorophenyl)-4-((4-(methyl(1-methylpiperidin-4-yl)carbamoyl)phenyl)amino)-1H-pyrazole-3-carboxamide]
0.01 to 0.1 | 0.01 to 0.1 | – | 0.1 to 1 | 0.1 to 1 | 0.1 to 1 | CCN(CC)CCNC(=O)c1ccc(Nc2cn(-c3c(Cl)cccc3Cl)nc2C(N)=O)cc1 [compound 422, 1-(2,6-dichlorophenyl)-4-((4-((2-(diethylamino)ethyl)carbamoyl)phenyl)amino)-1H-pyrazole-3-carboxamide]
0.01 to 0.1 | 0.01 to 0.1 | – | 0.1 to 1 | 0.1 to 1 | 0.1 to 1 | CN(C)C1CCN(C(=O)c2ccc(Nc3cn(-c4c(Cl)cccc4Cl)nc3C(N)=O)cc2)CC1 [compound 423, 1-(2,6-dichlorophenyl)-4-((4-(4-(dimethylamino)piperidine-1-carbonyl)phenyl)amino)-1H-pyrazole-3-carboxamide]
< 0.01 | < 0.01 | – | 0.1 to 1 | 0.1 to 1 | 0.1 to 1 | NC(=O)c1nn(-c2c(Cl)cccc2Cl)cc1Nc1ccc(C(=O)N2CC(C(N)=O)C2)cc1 [compound 453, 4-[4-(3-Carbamoyl-azetidine-1-carbonyl)-phenylamino]-1-(2,6-dichloro-phenyl)-1H-pyrazole-3-carboxylic acid amide]
